System: acetylated histone H3 in A549 lung adenocarcinoma cells
Experiment: Acetylated histone H3 in-cell western (ICW) assay
Type: cell-based
Conditions: Homo sapiens, 16 h exposure, relative to 40 μM Trichostatin A positive control, read-out: EC50 Ac-histone H3, A549 cells
Outline: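 A549 cells exposed to compound for 16 h at 37 °C (0.4% DMSO final), then fixed and immunostained for acetylated α-tubulin or histone H3 with near-infrared detection, signal normalised to cell stain. Response expressed relative to DMSO controls and to 40 μM scriptaid (tubulin) or 40 μM TSA (H3); EC50 by constrained nonlinear regression.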

EC50 [µM]	Compound
≥ 10	FC(F)(F)c1ccc(N(Cc2ccc(-c3noc(C(F)(F)F)n3)s2)c2cnccn2)nn1 [Example DH, N-(Pyrazin-2-yl)-6-(trifluoromethyl)-N-({5-[5-(trifluoromethyl)-1,2,4-oxadiazol-3-yl]thiophen-2-yl}methyl)pyridazin-3-amine]
≥ 10	FC(F)(F)c1nc(-c2ccc(CN(c3cnccn3)c3ccc(N4CCCC4)nn3)s2)no1 [Example DI, N-(Pyrazin-2-yl)-6-(pyrrolidin-1-yl)-N-({5-[5-(trifluoromethyl)-1,2,4-oxadiazol-3-yl]thiophen-2-yl}methyl)pyridazin-3-amine]
≥ 10	CS(=O)(=O)c1nccc(N(Cc2ccc(-c3noc(C(F)(F)F)n3)s2)c2cnccn2)n1 [Example CE, 2-Methanesulfonyl-N-(pyrazin-2-yl)-N-({5-[5-(trifluoromethyl)-1,2,4-oxadiazol-3-yl]thiophen-2-yl}methyl)pyrimidin-4-amine]
≥ 10	CS(=O)(=O)c1ccc(N(Cc2ccc(-c3noc(C(F)(F)F)n3)s2)c2cnccn2)nn1 [Example DL, 6-Methanesulfonyl-N-(pyrazin-2-yl)-N-({5-[5-(trifluoromethyl)-1,2,4-oxadiazol-3-yl]thiophen-2-yl}methyl)pyridazin-3-amine]

Reference: patent US20210038607A1, “OXADIAZOLYLTHIOPHENE DERIVATIVES USEFUL AS HISTONE DEACETYLASE INHIBITORS” (Karus Therapeutics Limited, priority 2018, published 2021)
